Measured values as given in PMC12837263, “β,β-Dimethylacrylalkannin Restores Colistin Efficacy Against mcr- and TCS-Mediated Resistant Gram-Negative Bacteria via Membrane Disturbance” (Antibiotics, 2025).

Columns and labels:
E. coli spheroplasts = test: Membrane permeability of spheroplasts (PI); type: cell-based
Description: The cytoplasmic membrane LPS concentrations of E. coli BW25113, E. coli BW25113-mcr-1, and E. coli BW25113-pmrBR93P were quantified using a Chromogenic LAL Endotoxin Assay Kit (Cat No, C0273S, Beyotime, Shanghai, China). Firstly, spheroplasts were prepared according to a previously described method to remove the outer membrane. Briefly, bacterial cells were washed with Tris buffer and resuspended in Tris buffer containing 20% sucrose. EDTA (250 μL, 10 mg/mL) and lysozyme (1 mL, 10 mg/mL) were added, followed by incubation at 30 °C for 1 h with shaking at 80 rpm. Trypsin (500 μL, 10 mg/mL) was added and incubated for an additional 15 min. […] Then, the released LPS was quantified by reacting with LPS detection reagents, and absorbance was measured at 405 nm.
The S. aureus ATCC 29213 bacterial suspension (OD600 = 0.5) was incubated with fluorescent probe propidium iodide (PI, Cat No. C1008S, Beyotime, Shanghai, China, final concentration 10 µM) for 30 min. […] Fluorescence intensity was measured at an excitation/emission wavelength of 535/615 nm. The cytoplasmic membrane permeability of E. coli BW25113, E. coli BW25113-mcr-1, and E. coli BW25113-pmrBR93P induced by β,β-Dim was assessed by preparing spheroplasts.

[1] = Isothermal titration calorimetry (ITC); type: binding; details: 25 °C, β,β-Dim vs CL
Description: An isothermal titration calorimetry (ITC) assay was used to assess the affinity between β,β-Dim and PE, PG, and CL using NANO ITC (TA, New Castle, DE, USA). β,β-Dim (0.01 mM) was loaded into the sample cell and titrated with 20 injections of 2 μL membrane components (0.2 mM) at 120 s intervals. The assay was performed at 25 °C with a stirring rate of 350 rpm. Data were analyzed using the independent binding model to calculate the dissociation constant (KD), stoichiometric ratio (n), enthalpy change (ΔH), and entropy change (ΔS).

[2] = system: E. coli BW25113, E. coli BW25113-mcr-1, E. coli BW25113-pmrBR93P; test: Intracellular colistin content (HPLC-MS/MS); type: cell-based; details: colistin 0.5 × MIC with β,β-Dim at the highest tested concentration; 30 min
Description: Overnight cultures E. coli BW25113, E. coli BW25113-mcr-1, and E. coli 1 BW25113-pmrBR93P were diluted to 10^8 CFU/mL and then co-incubated with colistin (0.5 × MIC) in the presence of β,β-Dim (0–4 μg/mL) for 30 min at 37 °C. The cultures were centrifuged and resuspended in 30% methanol. Bacteria were disrupted by sonication and centrifugation, supernatants were diluted in 20% acetonitrile, and intracellular colistin was quantified via HPLC-MS/MS (TQ-XS, Waters, Milford, MA, USA). Analyses were performed on a CORTECS Shield RP C18 column (Waters, Milford, MA, USA) at 40 °C, with a flow rate of 0.4 mL/min and an injection volume of 5 μL. The mobile phases consisted of solvent A (0.5% formic acid and acetonitrile in water) and solvent B (0.5% formic acid in water). Colistin was detected in positive ESI mode with ion transitions […] and m/z 386.0 > 101.0. […] Mobile phases included solvent A (acetonitrile) and solvent B (water). β,β-Dim was detected in the negative electrospray ionization (ESI) mode with ion transitions m/z 369.1 > 269.0 and m/z 369.1 > 241.0.

Molecule	membrane permeability (E. coli spheroplasts)	Kd [1] [µM]	intracellular colistin levels [2]
CC(C)=CC[C@H](OC(=O)C=C(C)C)C1=CC(=O)c2c(O)ccc(O)c2C1=O [β,β-Dim, β,β-dimethylacrylalkannin]	markedly increased membrane permeability	12.4	
colistin			exceeding 0.6 µg per 10^8 CFUs
